The conditions of data set [1]: ester bond, 2,4,6-trichlorobenzoyl chloride / Et3N / DMAP, toluene, 25.0 °C, 16.0 h.
In data set [2] the test system is paclitaxel binding site on tubulin. Description: Paclitaxel binding site inhibition assay ([3H]paclitaxel displacement from microtubules). Also noted: species or system bovine. Conditions: for Displacement of [3H]paclitaxel (%): 4 μM test agent, 2 μM [3H]paclitaxel, microtubules from 2 μM tubulin and 20 μM dideoxyGTP. Here is the method: (§1) General. Tubulin without microtubule-associated proteins was prepared from fresh bovine brains[32] The normoisotopic and tritiated forms of paclitaxel and normoisotopic docetaxel were provided by the Drug Synthesis and Chemistry Branch, National Cancer Institute. (+)-Discodermolide was from Novartis Pharmaceutical Corporation. Ca^2+- and Mg^2+-free RPMI-1640 culture medium were from GIBCO/BRL-Life Technologies. Fetal bovine serum (FBS) was from Hyclone. Cell lines were obtained from American Type Culture Collection (Manassas, Va.).
Paclitaxel binding site inhibition assay. A stock solution of [^3H]paclitaxel (26.8 μM, 16.2 Ci/mmol), obtained from the NCI, was prepared in 37% (v/v) DMSO. The test agents were prepared in 25% (v/v) DMSO-0.75 M monosodium glutamate (prepared from a 2M stock solution adjusted to pH 6.6 with HCl). The radiolabeled paclitaxel and test agents, as indicated in terms of final concentrations, were mixed in equal volumes and warmed to 37° C. A reaction mixture (50 μL) containing 0.75 M monosodium glutamate, 4.0 μM tubulin, and 40 μM ddGTP (a non-hydrolyzable analog of GTP) was prepared and incubated at 37° C. for 30 min to preform microtubules. An equivalent volume of drug mixture with [^3H]paclitaxel was added to preformed polymer and incubated for 30 min at 37° C. Bound [^3H]paclitaxel was separated from free drug by centrifugation of the reaction mixtures at 14000 rpm for 20 min at room temperature. Non-specific binding was determined by addition of a 12-fold excess of docetaxel. Radioactive counts from the supernatant (50 μL) were determined by scintillation spectrometry. Bound [^3H]paclitaxel was calculated from the following: total paclitaxel added to each reaction mixture minus the paclitaxel present in the supernatant (free drug). The % bound values were normalized to the control values with no inhibitor added.
Background: Displacement assays read how much labelled ligand stays bound in the presence of the test substance.

A further data set concerns MDA-MB231 (breast). Description: Cell growth inhibition (MTS), MDA-MB231. Type of data set: cell-based, human. Particulars: for GI50: read-out: GI50 MDA-MB-231 (breast). Here is the method:
(§2) Cell Growth Inhibition[34] Cells were plated (500-2000 cells/well depending on the cell line) in 96-well microplates, allowed to attach and grow for 48 h, then treated with vehicle (4% DMSO, a concentration that allowed doubling times of 24 h or less) or test agent (50, 10, 2, 0.4 and 0.08 μM for the new agents; 0.001, 0.005, 0.010, 0.020 and 0.100 μM for paclitaxel and discodermolide) for the given times. One plate consisted of cells from each line used for a time zero cell number determination. The other plates in a given determination contained eight wells of control cells, eight wells of medium and each agent concentration tested in quadruplicate. Cell numbers were obtained spectrophotometrically (absorbance at 490 nm minus that at 630 nm) in a Dynamax plate reader after treatment with 3-(4,5-dimethylthiazol-2-yl)-5-(3-carboxymethoxyphenyl)-2-(4-sulfophenyl)-2H-tetrazolium (MTS) using phenazine methanesulfonate as the electron acceptor. After initial screening with the above 5-fold dilutions, fifty percent growth inhibitory concentration (GI50) values were determined for each agent by repeating the screen using 2-fold dilutions (five concentrations) centered on the initial estimated GI50 concentration, again in quadruplicate.

The next data set deals with tubulin. In kind it is biochemical, bovine. Conditions: for properties of the induced polymer: speed of induction, resistance to cold-induced disassembly (in words): FIGS. 6A, 6C, 6D, analogs at somewhat lower potencies than discodermolide; for microtubule hypernucleation activity (in words): comparison with analog 40, FIGS. 6A-D and Table 1; for MT stabilizing activity (%): tubulin assembly induced by test agent at 10 μM vs. 10 μM paclitaxel (100%), single determinations at 30° C. The procedure:
as §1
Tubulin Polymerization[32] Tubulin assembly was followed in a Beckman-Coulter 7400 spectrophotometer, equipped with an electronic Peltier temperature controller, reading absorbance (turbidity) at 350 nm. Reaction mixtures (0.25 mL final volume) contained tubulin (final concentration 10 μM; 1 mg/mL), monosodium glutamate (0.8 M from a stock solution adjusted to pH 6.6 with HCl), DMSO (final volume 4% v/v), and differing concentrations of test agent where indicated. Reaction mixtures without test agent were cooled to 0° C. and added to cuvettes held at 0.25-0.5° C. in the spectrophotometer. Test agent in DMSO was then rapidly mixed in the reaction mixture. Each run contained one positive control (paclitaxel, 10 μM final concentration) and one negative control (DMSO only). Baselines were established at 0.25-2.5° C. and temperature was rapidly raised to 30° C. (in approximately 1 min) and held there for 20 min.

For another data set, the system named is 2008 (ovarian). The data set is described as follows: Cell growth inhibition (MTS), 2008. Conditions: read-out: GI50 2008 (ovary). In kind it is cell-based, human. The procedure: as §2
Where [3] appears, read: Homo sapiens, MDA-MB-231, read-out: 50% growth inhibitory concentration.
Where [4] appears, read: Table 2, applies to both human cancer cell lines, breast (MDA-MB-231) and ovarian (2008), read-out: 50% growth inhibitory concentration.
Setting [5] is: 72 hours continuous exposure (footnote b), mean ± SD, N = 4.

Like-named read-outs stand apart in the source and are kept apart here.

For orientation: GI50 means the concentration at which growth is held to half of that of the control.

Regarding `C=C/C=C\[C@H](C)[C@@H]1OC(=O)/C=C\C=C\[C@@H](C)[C@@H](O[Si](C)(C)C(C)(C)C)C[C@H](O[Si](C)(C)C(C)(C)C)/C=C\[C@H](C)[C@H](O)[C@@H](C)C[C@@H](C)CCC(O[Si](C)(C)C(C)(C)C)[C@@H]1C` (some centres unmarked), the ring closure, yield of all isomers in data set [1] (from C=C/C=C\[C@H](C)[C@H](O)[C@@H](C)C(CC[C@H](C)C[C@H](C)[C@@H](O)[C@@H](C)/C=C\[C@H](C[C@H](O[Si](C)(C)C(C)(C)C)[C@H](C)/C=C/C=C\C(=O)O)O[Si](C)(C)C(C)(C)C)O[Si](C)(C)C(C)(C)C, 1.77 mM, 2 steps) was determined as 49%.
In the case of `C=C/C=C\[C@H](C)[C@H]1OC(=O)/C=C\C=C\[C@@H](C)[C@H](OCc2ccc(OC)cc2)CC/C=C\[C@H](C)[C@H](OCc2ccc(OC)cc2)[C@@H](C)/C=C\CC[C@@H](OCc2ccc(OC)cc2)[C@H]1C`, the ring closure, yield of all isomers in data set [1] (from C=C/C=C\[C@H](C)[C@@H](O)[C@H](C)[C@@H](CC/C=C\[C@H](C)[C@@H](OCc1ccc(OC)cc1)[C@@H](C)/C=C\CC[C@@H](OCc1ccc(OC)cc1)[C@H](C)/C=C/C=C\C(=O)O)OCc1ccc(OC)cc1, 2 steps) is 79%.
The molecule `C=C/C=C\[C@H](C)[C@H]1OC(=O)CCCCCCCC/C=C\[C@H](C)[C@H](OCc2ccc(OC)cc2)[C@@H](C)/C=C\CC[C@@H](OCc2ccc(OC)cc2)[C@H]1C` registered a ring closure, yield of all isomers in data set [1] (from C=C/C=C\[C@H](C)[C@@H](O)[C@H](C)[C@@H](CC/C=C\[C@H](C)[C@@H](OCc1ccc(OC)cc1)[C@@H](C)/C=C\CCCCCCCCC(=O)O)OCc1ccc(OC)cc1, 1.93 mM) of 57%.
In the case of `C=C/C=C\[C@H](C)[C@H](OC(N)=O)[C@@H](C)[C@H](O)CC/C=C\[C@H](C)[C@H](O)[C@@H](C)/C=C\CC[C@@H]1OC(=O)[C@H](C)[C@@H](OCOC)[C@H]1C` [Compound 41], in data set [2], the “affinity for the paclitaxel binding site on tubulin (in words)” value is “considerable affinity” and the “Displacement of [3H]paclitaxel (%)” value is 57 ± 2%. The “displacement of [3H]paclitaxel from microtubules, comparison (in words)” value in data set [2] (2-fold molar excess of test agent) is “better than paclitaxel and at almost the same potency as discodermolide”. Also, the “50% growth inhibitory (GI50) concentration (in words)” value in the data set on MDA-MB231 (breast) (cellular activity, cell line not given) is “submicromolar”. For the same molecule, in the data set with tubulin, the “properties of the induced polymer: speed of induction, resistance to cold-induced disassembly (in words)” value is “more rapid polymer-inducing and cold-resistant properties”; the “microtubule hypernucleation activity (in words)” value was “better microtubule hypernucleation activities than the analog 40”; the “MT stabilizing activity (%)” value is listed as 27%.
Turning to `C=C/C=C\[C@H](C)[C@H](OC(N)=O)[C@@H](C)[C@H](O)CC/C=C\[C@H](C)[C@H](O)[C@@H](C)/C=C\CC[C@@H]1O[C@@H](OC)[C@H](C)[C@@H](OCOC)[C@H]1C` [Compound 42, Carbamic acid, (1S,2S,3R,6Z,8S,9S,1S,11Z)-3,9-dihydroxy-14-[(2S,3S,4S,5R,6R)-6-methoxy-4-methoxymethoxy-3,5-dimethyltetrahydropyran-2-yl]-2,8,10-trimethyl-1-[(1S,2Z)-1-methylpenta-2,4-dienyl]tetradeca-6,11-dienyl ester], the “Displacement of [3H]paclitaxel (%)” value in data set [2] worked out at 19 ± 2%. Moreover, in the data set with tubulin, the “properties of the induced polymer: speed of induction, resistance to cold-induced disassembly (in words)” value is “more rapid polymer-inducing and cold-resistant properties”; the “microtubule hypernucleation activity (in words)” value is “better microtubule hypernucleation activities than the analog 40”; the “MT stabilizing activity (%)” value is listed as 11%.
For the molecule `C=CC=C[C@H](C)[C@H]1OC(=O)CCCCCCCCC=C[C@H](C)[C@H](O)[C@@H](C)C=CCC[C@@H](O)[C@H]1C` [Compound 43, (1S,13S,14S,15S,20R,21R,22R)-14,20-Dihydroxy-13,15,21-trimethyl-22-(1-methylpenta-2,4-dienyl)-oxacyclodocosa-11,16-dien-2-one], the “Displacement of [3H]paclitaxel (%)” value in data set [2] (N = 6, means ± SD) was found to be 18 ± 5%. Further, the GI50 in the data set with MDA-MB231 (breast) (Homo sapiens, MDA-MB-231, 48 h) came out at 27 ± 1 µM; in the data set on 2008 (ovarian) (Homo sapiens, 48 h) it was 16 ± 1 µM. Besides, the IC50 in the data set with MDA-MB231 (breast) (setting [3]) fell in the range of 15 to 30 µM.
The matching figures for `C=CC=C[C@H](C)[C@@H](O)[C@H](C)[C@H](O)CCC=C[C@H](C)[C@@H](O)[C@@H](C)C=CCCCCCCCCCO` [Compound 47, (12S,13S,14S,19R,20R,21R,22S)-12,14,20,22-Tetramethylhexacosa-10,15,23,25-tetraene-1,13,19,21-tetraol]: 21 ± 2%, 18 ± 1 µM, 22 ± 5 µM and 15 to 30 µM.
Consider `C=CC=C[C@H](C)[C@@H](O)[C@H](C)[C@H](O)CCC=C[C@H](C)[C@@H](O)[C@@H](C)C=CCCCCCCCCC(=O)OC` [Compound 48, (12S,13S,14S,19R,20R,21R,22S)-13,19,21-Trihydroxy-12,14,20,22-tetramethylhexacosa-10,15,23,25-tetraenoic acid methyl ester], for which the “Displacement of [3H]paclitaxel (%)” value in data set [2] (N = 6, means ± SD) is listed as 17 ± 1%. Besides, the GI50 in the data set with MDA-MB231 (breast) (Homo sapiens, MDA-MB-231, 48 h) is 26 ± 3 µM; with 2008 (ovarian) (Homo sapiens, 48 h), 19 ± 2 µM. For the same molecule, in the data set with MDA-MB231 (breast) (setting [3]), the IC50 fell in the range of 15 to 30 µM.
For the molecule `C=CC=C[C@H](C)[C@@H](O)[C@H](C)[C@H](O)CCC=C[C@H](C)[C@@H](O)[C@@H](C)C=CCCCCCCCCC(=O)O` [Compound 49, (12S,13S,14S,19R,20R,21R,22S)-13,19,21-Trihydroxy-12,14,20,22-tetramethylhexacosa-10,15,23,25-tetraenoic acid], the “Displacement of [3H]paclitaxel (%)” value in data set [2] (N = 6, means ± SD) was 16 ± 3%. Moreover, the GI50 with MDA-MB231 (breast) (Homo sapiens, MDA-MB-231, 48 hours continuous exposure, mean ± SD, N = 4) was over 50 µM; in the data set with 2008 (ovarian) (Homo sapiens, 48 hours continuous exposure, mean ± SD, N = 4), over 50 µM. Further, the IC50 with MDA-MB231 (breast) (setting [4]) is over 50 µM.
Consider `C=CC=CC(C)[C@H]1OC(=O)C=CC=C[C@@H](C)[C@H](O)CCC=C[C@H](C)[C@H](O)[C@@H](C)C=CCC[C@@H](O)[C@H]1C` (stereo partly drawn) [Compound 54, (7R,8R,13S,14S,15S,20R,21R,22R,23S)-8,14,20-Trihydroxy-7,13,15,21-tetramethyl-22-(1-methylpenta-2,4-dienyl)-oxacyclodocosa-3,5,11,16-tetraen-2-one], for which, in data set [2] (N = 6, means ± SD), the “Displacement of [3H]paclitaxel (%)” value is 27 ± 8%. The “potency of [3H]paclitaxel displacement relative to discodermolide” value in data set [2] ([3H]paclitaxel stoichiometrically bound to microtubules) is “about ⅓”. The GI50 in the data set on MDA-MB231 (breast) (setting [5]) amounted to 1.4 ± 0.1 µM; in the data set on 2008 (ovarian) (setting [5]), 1 ± 0.1 µM. The IC50 with MDA-MB231 (breast) (setting [4]) was about 1 µM.

The values are drawn from patent US20060270862A1, “Analogs of discodermolide and dictyostatin-1, intermediates therefor and methods of synthesis thereof” (priority 2002, published 2006).
